{"source": "patent EP0956036B1", "about": "“ANTI-FIBROTIC AGENT ASSAY” (ETHICON, INC., priority 1996, dated 1998)", "key": {"[1]": {"system": "TGF-β1 activation", "assay": "Macrophage activation assay (LPS-treated IC-21 macrophages plus fetal fibroblast conditioned media, TGF-β1 ELISA)", "assay_type": "cell-based, Mouse", "details": "for inhibition at 50 µM / inhibition at 100 µM: read-out: Inhibition of TGF-β1 Activation, % control (STD)", "protocol": "Cultured macrophages were lifted from the dish with 3 ml of PBS. The PBS was balanced with 15 ml of RPMI-1640 containing 10% FBS. The cells were counted and then seeded in 100 mm plates at 1x10^6 cells/dish. When the cultured macrophages reached approximately 70% confluency (2-3 days) they were washed with PBS and RPMI-1640 medium containing 5% FBS and 10 ng/ml LPS was applied (Figure 1). After 24 h of activation with LPS the cells were washed gently with PBS. At this point conditioned medium from confluent fetal dermal fibroblasts was collected and 5 ml was distributed into each dish containing macrophages. The cells were incubated for an additional 24 h, the media were collected, spun down at 600 x g for 10 min and stored at 4° C before TGF-β1 evaluation by ELISA. Each condition was done in duplicate. The cells, washed with PBS, were harvested for total RNA extraction.\nFetal dermal fibroblasts were seeded in 100 mm dishes at 1x10^6 cell/dish. The cells were grown to confluency (2-3 days). The cultures were washed with PBS and fresh medium, either DMEM supplemented with 10% FBS or AIM-V medium (a serum free medium) for serum-free conditions, was applied for 24 h (Figure 1). The medium was collected and combined in order to obtain a homogenous pool of latent TGF-β1. The collection of the medium was done just prior to application in the macrophage assay.\nEach measurement was performed in duplicates."}, "[2]": {"system": "TGF-β1", "assay": "mRNA for TGF-β1 in macrophages, Northern blot", "assay_type": "cell-based, Mouse", "details": "combined treatment of LPS with M6P or DCA", "protocol": "(§1) The cells were washed with PBS, followed by addition of the extraction buffer provided with the kit (RNeasy RNA extraction kit). The lysed cells were scraped from the dish and collected in microtubes. Samples were either frozen at -70 °C before analysis or directly assessed following manufacturer protocol. Absorbance at 260 nm and 280 nm was measured and the integrity of RNA was evaluated by denaturing formaldehyde agarose gels stained with ethidium bromide.\nNorthern blot analysis was carried out as described previously (27). Briefly, total RNA samples (5 µg) were diluted in formaldehyde-MOPS buffer and subjected to electrophoresis in a denaturing 1.2 % Sea Kem GTG agarose gel along with the RNA size markers. RNA was transferred to a nitrocellulose membrane by capillary transfer. The blots were prehybridized for 3 h at 42° C in a solution containing 10% dextran sulfate, 2 x Denhardt's solution, 50% formamide, 5 x SSPE (0.75 M Sodium chloride, 0.05 M sodium phosphate, 0.005 M ethylenediaminetetraacetic acid)/ 0.1% SDS, and 250 µg/ml of sheared salmon testis DNA. Hybridization solution was essentially the same except that ^32P dCTP-labeled DNA probe and 150 µg/ml of salmon testis DNA were included. The hybridization was carried out for 16 h at 42° C. […]"}, "[3]": {"system": "M6P/IGF-II receptor", "assay": "Expression of M6P/IGF-II receptor mRNA in neonatal fibroblasts, semiquantitative RT-PCR", "assay_type": "cell-based, human", "protocol": "(§2) Human neonatal fibroblasts were seeded in 100 mm dishes at 1 x 10^6 cells/dish. […] In addition, cells were treated with two concentrations of Mannose 1-Phosphate (M1P) (100 and 200 µM) for 24 and 48 h. […] Each treatment was run in duplicates and repetitive analyses were performed.\nas §1\nThe procedure used to transcribe the total RNA was described in detail previously (28). Briefly, the reaction was carried out in a total volume of 25 µl containing 1x reverse transcriptase buffer (50 mM Tris-HCl, pH 8.3, 75 mM KCl, 3 mM MgCl2), 10 mM DTT (Dithiothreitol), 2.5 mM each of dNTPs (Deoxynucleotides), 100 µg/ml of acetylated BSA, 4 units of rRNasin (ribonuclease inhibitor), 200 units of SuperScript ™ RNase H^-Reverse Transcriptase, 0.1 µg of oligo (dT)12-18 and 1 µg of total RNA. Incubation was carried out for 1 h at 42 °C and was terminated by the addition of an equal volume of cold water.\nA portion of the first strand cDNA reaction was used in PCR, which was carried out in 25 µl containing 16 mM Tris-HCl, pH 8.3, 50 mM KCl, 1.5 mM MgCl2, 0.01 % gelatin, 200 µM of each dNTPs, 1 µM each sense and antisense oligonucleotides and 2.5 units of AmpliTaq DNA polymerase. Amplification was carried out for 35 cycles. Each cycle consisted of denaturation 1 min at 95°C; annealing at 55°C (optimal for the pair of oligonucleotides used) for 2 min; and elongation at 72°C, 3 min. For the final cycle elongation was 7 min. Reaction products were separated by 2% agarose gel electrophoresis and were visualized by ethidium bromide staining. […] Restriction digests were performed in order to confirm PCR product specificity. Densitometry was used for quantitative analysis of the ethidium bromide stained gels."}, "[4]": {"system": "TGF-β1", "assay": "Expression of TGF-β1 mRNA in neonatal fibroblasts, semiquantitative RT-PCR", "assay_type": "cell-based, human", "protocol": "as §2, §1\n(§3) The procedure used to transcribe the total RNA was described in detail previously (28). […]\nA portion of the first strand cDNA reaction was used in PCR, which was carried out in 25 µl containing 16 mM Tris-HCl, pH 8.3, 50 mM KCl, 1.5 mM MgCl2, 0.01 % gelatin, 200 µM of each dNTPs, 1 µM each sense and antisense oligonucleotides and 2.5 units of AmpliTaq DNA polymerase. […] Densitometry was used for quantitative analysis of the ethidium bromide stained gels."}, "[5]": {"system": "TGF-β receptor type I", "assay": "Expression of TGF-β receptor type I mRNA in neonatal fibroblasts, semiquantitative RT-PCR", "assay_type": "cell-based, human", "details": "M6P treatment, during the time course (24 and 48 h)", "protocol": "as §2, §1, §3\n(§4) A portion of the first strand cDNA reaction was used in PCR, which was carried out in 25 µl containing 16 mM Tris-HCl, pH 8.3, 50 mM KCl, 1.5 mM MgCl2, 0.01 % gelatin, 200 µM of each dNTPs, 1 µM each sense and antisense oligonucleotides and 2.5 units of AmpliTaq DNA polymerase. […] Sizes were determined using Q X 174 DNA/Hae III markers. […] Densitometry was used for quantitative analysis of the ethidium bromide stained gels."}, "[6]": {"system": "M6P/IGF-II receptors", "assay": "Levels of M6P/IGF-II receptors within wounds treated with M6P", "assay_type": "in vivo", "details": "3 days post-wounding"}, "[7]": {"system": "TGase II", "assay": "mRNA for TGase II in macrophages, RT-PCR with densitometry", "assay_type": "cell-based", "details": "Mus musculus, Macrophage; macrophages treated with 1 µM hydrocortisone; densitometric analysis of RT-PCR products", "protocol": "as §1, §3, §4\nIn an attempt to identify the mechanism of this inhibition, the level of mRNA was evaluated for TGase II in macrophages treated with 1 µM hydrocortisone."}}, "note": "Where two headings read alike, the source gives them in different places.", "data": [{"smiles": "Cl.Cl.NCCCCN", "note": "[Putrescine, putrescine-dihydrochloride]", "values": [{"measurement": "Inhibition of TGF-β1 Activation, % control (STD)", "setting": "[1]; 50 µM", "value": "33.4 (28.8) %"}, {"measurement": "Inhibition of TGF-β1 Activation, % control (STD)", "setting": "[1]; 100 µM", "value": "80.6 (15.5) %"}, {"measurement": "inhibition at 50 µM", "setting": "[1]; Mus musculus, 50 µM", "value": 33.4, "unit": "%"}, {"measurement": "inhibition at 100 µM", "setting": "[1]; Mus musculus, 100 µM", "value": "80.6 ± 15.5", "unit": "%"}]}, {"smiles": "O=P(O)(O)OC[C@H]1OC(O)[C@@H](O)[C@@H](O)[C@@H]1O", "note": "(stereo partly drawn) [M6P, D-mannose 6-phosphate]", "values": [{"measurement": "Inhibition of TGF-β1 Activation, % control (STD)", "setting": "[1]; 50 µM", "value": "69.6 (1.7) %"}, {"measurement": "Inhibition of TGF-β1 Activation, % control (STD)", "setting": "[1]; 100 µM", "value": "32.9 (11.5) %"}, {"measurement": "Total TGF-β1 (STD)", "setting": "[1]; LPS + CM serum-free, 100 µM", "value": "1649.8 (71.7) pg/ml"}, {"measurement": "Total TGF-β1 (STD)", "setting": "[1]; LPS+CM with serum, 100 µM", "value": "2472.6 (374.5) pg/ml"}, {"measurement": "inhibition at 50 µM", "setting": "[1]; Mus musculus, 50 µM", "value": 69.6, "unit": "%"}, {"measurement": "inhibition at 100 µM", "setting": "[1]; Mus musculus, 100 µM", "value": 32.9, "unit": "%"}, {"measurement": "levels of mRNA for TGF-β1", "setting": "[2]", "value": "remained the same"}, {"measurement": "M6P/IGF II Receptor 24h", "setting": "[3]; M6P 1 µM", "value": "98.4 (20.6)"}, {"measurement": "M6P/IGF II Receptor 48h", "setting": "[3]; M6P 1 µM", "value": "112.8 (21.4)"}, {"measurement": "M6P/IGF II Receptor 24h", "setting": "[3]; M6P 10 µM", "value": "86.1 (3.2)"}, {"measurement": "M6P/IGF II Receptor 48h", "setting": "[3]; M6P 10 µM", "value": "108 (7.1)"}, {"measurement": "M6P/IGF II Receptor 24h", "setting": "[3]; M6P 50 µM", "value": "74 (36.6)"}, {"measurement": "M6P/IGF II Receptor 48h", "setting": "[3]; M6P 50 µM", "value": "59.3 (1.4)"}, {"measurement": "M6P/IGF II Receptor 24h", "setting": "[3]; M6P 100 µM", "value": "85.4 (25)"}, {"measurement": "M6P/IGF II Receptor 48h", "setting": "[3]; M6P 100 µM", "value": "42.2 (3.2)"}, {"measurement": "M6P/IGF II Receptor 24h", "setting": "[3]; M6P 200 µM", "value": "57.5 (5.2)"}, {"measurement": "M6P/IGF II Receptor 48h", "setting": "[3]; M6P 200 µM", "value": "39.6 (1.3)"}, {"measurement": "TGF-β1 48 h", "setting": "[4]; M6P 100 µM, 48h", "value": "57.5 (15.9)"}, {"measurement": "level of TGF-β receptor type I mRNA", "setting": "[5]", "value": "unchanged"}, {"measurement": "levels of the M6P/IGF-II receptors within the wounds", "setting": "[6]", "value": "downregulated"}]}, {"smiles": "C[C@]12CCC(=O)C=C1CC[C@@H]1[C@@H]2[C@@H](O)C[C@@]2(C)[C@H]1CC[C@]2(O)C(=O)CO", "note": "[Hydrocortisone, hydrocortisone]", "values": [{"measurement": "inhibition at 1 µM", "setting": "[1]; Mus musculus, read-out: Inhibition of TGF-β1, % Control (STD)", "value": 64, "unit": "%"}, {"measurement": "TGase II mRNA level, % of control at 1 µM", "setting": "[7]", "value": 37.5, "unit": "%"}]}, {"smiles": "CN(C)c1cccc2c(S(=O)(=O)NCCCCCN)cccc12", "note": "[DCA, monodansylcadaverine]", "values": [{"measurement": "Inhibition of TGF-β1 Activation, % control (STD)", "setting": "[1]; 100 µM, listed as Damylcadaverine", "value": "18.3 (1.6) %"}, {"measurement": "Total TGF-β1 (STD)", "setting": "[1]; LPS+CM with serum, 100 µM", "value": "2302 (219.3) pg/ml"}, {"measurement": "inhibition at 100 µM", "setting": "[1]; Mus musculus, 100 µM", "value": 18.3, "unit": "%"}, {"measurement": "levels of mRNA for TGF-β1", "setting": "[2]", "value": "remained the same"}]}, {"smiles": "O=P(O)(O)O[C@H]1O[C@H](CO)[C@@H](O)[C@H](O)[C@@H]1O", "note": "[M1P, alpha-D(+) mannose 1-phosphate]", "values": [{"measurement": "inhibition at 100 µM", "setting": "[1]; Mus musculus", "value": 85.9, "unit": "%"}, {"measurement": "M6P/IGF-II receptor mRNA levels", "setting": "[3]; 100 and 200 µM, 24 and 48 h", "value": "no effects"}, {"measurement": "TGF-β1 mRNA levels", "setting": "[4]; 100 and 200 µM, 24 and 48 h", "value": "no effects"}]}]}
